{"source": "patent US5023358A", "about": "“Vanadyl organo-mineral compound, method for obtaining such a compound, pharmaceutical composition containing this organo-mineral compound” (Panmedica S.A., priority 1987, dated 1991)", "key": {"Na^+ /K^+ ATP ase enzyme": {"system": "Na^+ /K^+ ATP ase enzyme", "settings": "absorption mechanisms; cited from earlier work"}, "insulin receptor": {"system": "insulin receptor", "settings": "intra-cellular, vanadyl (V^4+) form; cited from earlier work"}, "diabetic rats [1]": {"system": "diabetic rats", "settings": "cited from earlier work"}, "diabetic rats [2]": {"system": "diabetic rats", "settings": "oral, cited from earlier work"}, "diabetic rats [3]": {"system": "diabetic rats", "assay": "Glycemia of diabetic (streptozotocin) and non-diabetic rats after a unique oral administration", "type": "in vivo, rat", "excerpt": "Then, the anti-diabetic activity of the above described complex of vanadyl and cystein has been examined.\nThe examination has been performed also starting from the compound with the formula (II). The activity of this compound has been compared on diabetic rats and on non-diabetic rats, and the activity of this compound (II) has be compared with that of the vanadyl sulfate.\nTests have been carried out on animals having a glycemia higher than 3 g/l.\nThe method is as follows. Diabetes is induced by intraveinous injection of a unique dose of streptozotocin of about 50 mg/kg, on male or female rats of the WISTAR strain with a mean weight of 200 g. The glycemia is measured 4 days after the injection.\nThe procedure of the pharmacological tests is as follows. A quantity of 45 mg/kg of compound (II) is administered by forcible feeding (doses of 10 ml/kg) to animals which have been fed, in the form of a suspension in a 3% solution of gum arabic. A dose of vanadyl sulfate equimolar to 45 mg/kg of compound (II) is administered.\nThe glycemia is measured by quantitative analysis. Blood is sampled from the tail of the animal. The glycemia is measured by means of a device named \"AMES glucometer\" (trade-mark). The rate of glycemia is read on \"Derotrostix\" dipsticks (trade-mark) of the aforesaid device."}, "[4]": {"system": "male rats of the WISTAR strain", "type": "in vivo", "settings": "oral, rat", "excerpt": "First, the potential toxicity of the complex has been investigated.\nThe investigation has been carried out starting from the bimolecular vanadyl compound having one free amin group, of the general formula (II). After a unique oral administration to the rat, the measured toxicity of the compound of formula (II) on the one hand and of the vanadyl sulfate on the other hand have been compared.\nThe procedure of the toxicological tests is as follows.\nOn the one hand, the toxicity of the compound (II) is examined by administering orally increasing doses of compound (II), up to 1 g/kg, to a group of 10 male rats of the WISTAR strain with a mean weight of 150 g. A quantity of 10 ml/kg of a suspension of compound (II) in 3% gum arabic is administered, by forcible feeding, to animals which have not been fed. Then, the animals are examined for 14 days, in order to count for the deaths and to search and observe the signs of toxicity.\nOn the other hand, the acute toxicity of the vanadyl sulfate (VOSO4) is contemplated under similar conditions on animals divided into 7 groups of 10 animals to which the following doses have been administered: 300, 400, 500, 600, 800, 1000 and 1500 mg/kg.\nThe lethal dose (LD50) has been calculated by the method of […] AND WILCOXON."}, "[5]": {"settings": "45 mg/kg compound (II) or equimolar vanadyl sulfate"}}}
{"molecule": "[O]=[V]([O-])([O-])[O-]", "note": "[vanadate]", "values": [{"measurement": "effect on Na+/K+ ATPase", "setting": "Na^+ /K^+ ATP ase enzyme", "value": "inhibiting the Na^+ /K^+ ATP ase enzyme"}]}
{"molecule": "[O]=[V+2]", "note": "[vanadyl (V^4+)]", "values": [{"measurement": "effect on phosphorylation of the insulin receptor", "setting": "insulin receptor", "value": "facilitating or inducing the phosphorylation of the insulin receptor"}]}
{"molecule": "sodium vanadate", "values": [{"measurement": "effect on cardiac function impairment associated to diabetes", "setting": "diabetic rats [1]; in drink water, diabetic rats", "value": "the impairing of the cardiac function associated to diabetes is prevented"}, {"measurement": "effect on glycemia of diabetic rats", "setting": "diabetic rats [1]; in drink water, diabetic rats", "value": "the glycemia of the rats is normalized"}, {"measurement": "anti-diabetic effect, taken orally", "setting": "diabetic rats [1]; oral", "value": "has an anti-diabetic effect"}]}
{"molecule": "O=S(=O)([O-])[O-].[O]=[V+2]", "note": "[vanadyl sulfate]", "values": [{"measurement": "acute toxicity", "setting": "diabetic rats [2]; diabetic rats", "value": "presents an acute toxicity"}, {"measurement": "anti-diabetic effect in diabetic rats", "setting": "diabetic rats [2]", "value": "has an anti-diabetic effect"}, {"measurement": "duration of the drop of glycemia", "setting": "diabetic rats [3]; [5]", "value": "≤ 2", "unit": "h"}, {"measurement": "effect on glycemia", "setting": "diabetic rats [3]; [5]", "value": "weaker and transitory decrease of the glycemia"}, {"measurement": "maximal decrease of glycemia", "setting": "diabetic rats [3]; vanadyl sulfate equimolar to 45 mg/kg of compound (II)", "value": "about 1 g/l"}, {"measurement": "signs of toxicity at the higher doses", "setting": "[4]; 800, 1000 and 1500 mg/kg", "value": "an hypothermia and cases of chromodacryorrhoea"}, {"measurement": "dose of first signs of toxicity", "setting": "[4]; unique administration", "value": 400, "unit": "mg/kg"}, {"measurement": "LD50", "setting": "[4]; unique administration, 20160 min", "value": 600, "unit": "mg/kg"}, {"measurement": "signs of toxicity", "setting": "[4]; unique administration, general and from 400 mg/kg", "value": "diarrhoea with a variable seriousness, a decrease of the motor activity and a loss of flesh"}]}
